# Laboratory results as given in patent US12390441B2, “Immunomodulating o-het/aryl azalides” (Zoetis Services LLC, priority 2020, dated 2025).
# “And” between values parts separate entries of the source, which are not always exact repeats. Equal entries are not always repeated.
# Key:
# Assay in all cases: Whole blood assay, LPS stimulation, MSD cytokine detection
# [1] = test system: IL-1β; format: cell-based, bovine; settings: fresh whole bovine blood, LPS stimulation; drug concentration giving overstimulation (OS) of IL-1β
# Procedure: (§1) Compounds of the invention were evaluated against a positive control for their ability to inhibit LPS-induced IL-1p and TNF-α as an overall evaluation of relative potency and modulation of target pathways.
# (§2) In the bovine whole blood in vitro screening assay the inhibition of TNFα as induced by stimulation by lipopolysaccharide (LPS) and as measured by half the maximal inhibitory concentration (IC50) is recognized as the primary biomarker of immunomodulation potency upon pretreatment with the compounds of the invention. IL-1β is a mediator of the inflammation response and is involved in a number of cellular activities including proliferation, differentiation and apoptosis. IL-1β is also released upon cellular stress or cytotoxicity or upon TLR stimulation. In the bovine whole blood assay the stimulation of IL-1β release upon increasing concentration of test compound is seen as a potential cellular toxicity signal as induced by the test compound. In order to estimate a therapeutic index from the in vitro assay a differential between the TNFα IC50 (immunomodulation potency) versus the perceived cellular toxicity concentration (IL-1β release or overstimulation) was utilized. […] As the in vitro assay index approaches 1 it is proposed that the balance between immunomodulation and cytotoxicity would be too narrow in order to achieve an efficacious dose in vivo.
# [2] = test system: IL-6; format: cell-based; settings: fresh whole bovine blood
# [3] = test system: TNF-α; format: cell-based; settings: fresh whole bovine blood
# Procedure: as §1, §2
Compound,IC50 [2],IC50 [3] [µM],IL-1ß OS of LPS [1]
CC[C@H]1OC(=O)[C@H](C)[C@@H](O[C@H]2C[C@@](C)(OC)[C@@H](O)[C@H](C)O2)[C@H](C)[C@@H](O[C@@H]2O[C@H](C)C[C@H](N(C)C)[C@H]2Oc2cnc(Cl)cc2C)[C@](C)(O)C[C@@H](C)CN(C)[C@H](C)[C@@H](O)[C@]1(C)O [Example A-45],12 µM,4,40 µM
CC[C@H]1OC(=O)[C@H](C)[C@@H](O[C@H]2C[C@@](C)(OC)[C@@H](O)[C@H](C)O2)[C@H](C)[C@@H](O[C@@H]2O[C@H](C)C[C@H](N(C)C)[C@H]2Oc2cc(OC)ccc2OC)[C@](C)(O)C[C@@H](C)CN(C)[C@H](C)[C@@H](O)[C@]1(C)O [Example A-35],11 µM,4,40 µM
CC[C@H]1OC(=O)[C@H](C)[C@@H](O)[C@H](C)[C@@H](O[C@@H]2O[C@H](C)C[C@H](N(C)C(=O)N(C)C)[C@H]2Oc2ccc(F)cc2C)[C@](C)(O)C[C@@H](C)CN[C@H](C)[C@@H](O)[C@]1(C)O [Example C-25],25 µM,59,40 µM
CCCNC[C@]1(O)[C@H](C)O[C@@H](O[C@H]2[C@H](C)[C@@H](O[C@@H]3O[C@H](C)C[C@H](N(C)Cc4ccc(OC)cc4)[C@H]3Oc3ccccc3)[C@](C)(O)C[C@@H](C)CN[C@H](C)[C@@H](O)[C@](C)(O)[C@@H](CC)OC(=O)[C@@H]2C)C[C@@]1(C)OC [Example E-147],5 µM,6,4 µM

# Continued, in another order:
IC50 [2],IC50 [3] [µM],Compound,IL-1ß OS of LPS [1]
52 µM,13,CC[C@H]1OC(=O)[C@H](C)[C@@H](O[C@H]2C[C@@](C)(OC)[C@](O)(CNCCN(C)C)[C@H](C)O2)[C@H](C)[C@@H](O[C@@H]2O[C@H](C)C[C@H](N(C)C)[C@H]2Oc2ccc(F)cc2)[C@](C)(O)C[C@@H](C)CN[C@H](C)[C@@H](O)[C@]1(C)O [Example E-114],40 µM
1 µM,2,CCCNC[C@]1(O)[C@H](C)O[C@@H](O[C@H]2[C@H](C)[C@@H](O[C@@H]3O[C@H](C)C[C@H](N(C)Cc4ccccc4)[C@H]3Oc3ccccc3)[C@](C)(O)C[C@@H](C)CN[C@H](C)[C@@H](O)[C@](C)(O)[C@@H](CC)OC(=O)[C@@H]2C)C[C@@]1(C)OC [Example E-148],1 µM
44 µM,19,CC[C@H]1OC(=O)[C@H](C)[C@@H](O[C@H]2C[C@@](C)(OC)[C@](O)(CNC(C)C)[C@H](C)O2)[C@H](C)[C@@H](O[C@@H]2O[C@H](C)C[C@H](NC)[C@H]2Oc2ccccc2)[C@](C)(O)C[C@@H](C)CN[C@H](C)[C@@H](O)[C@]1(C)O [Example E-127],40 µM
40 µM,17,CC[C@H]1OC(=O)[C@H](C)[C@@H](O[C@H]2C[C@@](C)(OC)[C@](O)(CN(C)CCN(C)C)[C@H](C)O2)[C@H](C)[C@@H](O[C@@H]2O[C@H](C)C[C@H](N(C)C)[C@H]2Oc2ccc(F)cc2)[C@](C)(O)C[C@@H](C)CN[C@H](C)[C@@H](O)[C@]1(C)O [Example E-113],40 µM
65 µM,45,CCCNC[C@]1(O)[C@H](C)O[C@@H](O[C@H]2[C@H](C)[C@@H](O[C@@H]3O[C@H](C)C[C@H](NC)[C@H]3Oc3ccc(S(C)(=O)=O)cc3)[C@](C)(O)C[C@@H](C)CN[C@H](C)[C@@H](O)[C@](C)(O)[C@@H](CC)OC(=O)[C@@H]2C)C[C@@]1(C)OC [Example E-80],>250 µM
18 µM and 19 µM,,CC[C@H]1OC(=O)[C@H](C)[C@@H](O[C@H]2C[C@@](C)(OC)[C@](O)(CNCC3CC3)[C@H](C)O2)[C@H](C)[C@@H](O[C@@H]2O[C@H](C)C[C@H](N(C)C)[C@H]2Oc2ccccc2)[C@](C)(O)C[C@@H](C)CN[C@H](C)[C@@H](O)[C@]1(C)O [Example E-87],16 µM and 26 µM
